Data on 6 compounds can be found in article PMC3124589 (Biochimica et biophysica acta, 2011).

Test [1] concerns the target T1, mtDAPDC (Mycobacterium tuberculosis, UniProt P9WIU7). As to the kind of experiment: Inhibition assay for mtDAPDC, coupled carbon dioxide assay. It counts as biochemical.
Test [2] concerns the target T1, mtDAPDC. The test can be described thus: Steady-state coupled carbon dioxide assay, mtDAPDC. The note with it: for kcat / Km: errors in parentheses; for Km: meso-DAP value corrected for the 50% D,L-DAP present. It counts as biochemical.
Test [3] deals with T1, mtDAPDC. The test can be described thus: HPLC assay for reaction of mtDAPDC with alternate substrates. It is filed as biochemical. The note with it: reaction 25 °C, 12–16 hours; OPA derivatization.
Test [4] addresses S. cerevisiae ODC (Saccharomyces cerevisiae, UniProt P08432). The test can be described thus: biochemical.
Test [5] deals with yeast ODC. The note with it: read-out: concentration necessary for 50% inhibition; cited from earlier work.
Setting [6] is: D,L-DAP held at Km (400 μM), competitive inhibition assumed (eq 1).

“Also recorded” adds a separate entry of the source. Read-outs that look alike come from different tables or passages of the source.

What is called Km is the concentration of substrate that gives half-maximal velocity. The Ki is a measure of affinity in units of concentration, obtained from inhibition or displacement. Read a high Ki as weaker binding.

T1 sequence (P9WIU7 whole entry, looked up): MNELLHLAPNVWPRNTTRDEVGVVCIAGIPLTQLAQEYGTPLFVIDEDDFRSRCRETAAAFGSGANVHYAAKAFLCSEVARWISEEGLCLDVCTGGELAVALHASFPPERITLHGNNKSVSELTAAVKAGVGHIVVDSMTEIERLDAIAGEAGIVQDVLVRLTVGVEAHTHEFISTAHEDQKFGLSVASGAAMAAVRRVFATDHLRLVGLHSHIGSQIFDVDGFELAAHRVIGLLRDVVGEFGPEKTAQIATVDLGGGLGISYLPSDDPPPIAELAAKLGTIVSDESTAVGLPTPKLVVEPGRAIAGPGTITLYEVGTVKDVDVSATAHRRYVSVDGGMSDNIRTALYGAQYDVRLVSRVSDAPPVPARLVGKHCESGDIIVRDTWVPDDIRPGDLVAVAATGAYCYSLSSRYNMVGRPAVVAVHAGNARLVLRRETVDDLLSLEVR
S. cerevisiae ODC, sequence (P08432 whole entry): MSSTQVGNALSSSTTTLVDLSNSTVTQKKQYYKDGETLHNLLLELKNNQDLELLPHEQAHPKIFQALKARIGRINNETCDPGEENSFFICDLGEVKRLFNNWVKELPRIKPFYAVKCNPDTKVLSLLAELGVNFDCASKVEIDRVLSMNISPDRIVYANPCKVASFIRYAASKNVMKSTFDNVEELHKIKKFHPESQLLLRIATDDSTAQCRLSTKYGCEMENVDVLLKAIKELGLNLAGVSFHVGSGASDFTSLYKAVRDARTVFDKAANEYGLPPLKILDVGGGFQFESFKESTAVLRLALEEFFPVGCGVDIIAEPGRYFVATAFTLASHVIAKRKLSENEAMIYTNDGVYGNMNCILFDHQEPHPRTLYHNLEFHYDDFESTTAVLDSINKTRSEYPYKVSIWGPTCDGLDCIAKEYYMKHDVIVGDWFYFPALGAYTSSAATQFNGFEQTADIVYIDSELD

Take `N[C@H](CCC[C@@H](N)C(=O)O)C(=O)O` [D,D-DAP]: the “inhibition of the D,L-DAP reaction” value in test [1] (at concentrations of 6 mM (data not shown)) is “no detectable inhibition”. In addition, in test [2], the kcat is listed as 1.8 (0.3) s^−1 and the Km turned out to be 17 mM. In addition, in test [2] (relative to D,L-DAP), the “kcat less than with the natural substrate” value came to 4 fold and the “kcat/KM lower than D,L-DAP” value is recorded as ~ 100 fold. Also, the “decarboxylation detected by HPLC” value in test [3] was “decarboxylated”.
As to `N[C@@H](CCC[C@H](N)C(=O)O)C(=O)O` [D,L-DAP, D,L-diaminopimelate], in test [2], the kcat is 7.1 (0.1) s^−1 and the Km came out at 0.43 mM.
In turn, `NCCCC[C@@H](N)C(=O)O` [D-lysine] returned a Ki in test [1] (setting [6]) of 26000 µM. Besides, the “decarboxylation detected by HPLC” value in test [3] was “decarboxylated”.
`NC(CCCC(N)C(=O)O)C(=O)O` [L,L-DAP] displayed a Ki in test [1] (setting [6]) of 1600 µM. Also, the “binding weaker than D,L-DAP” value in test [1] (Ki compared with Km of D,L-DAP) is ~ 4 fold. In addition, the “decarboxylation detected by HPLC” value in test [3] was “no detectable amounts of their decarboxylation products; also recorded: not decarboxylated”.
The compound `NCCCC[C@H](N)C(=O)O` [L-lysine] had a Ki in test [1] of 1800 µM. Besides, the “decarboxylation detected by HPLC” value in test [3] is “no detectable amounts of their decarboxylation products”.
The compound `NCCCCN` [putrescine] showed a Ki in test [4] of 250 ± 45 µM. Also, in test [5], the IC50 is 100 µM.
